Data taken from PubChem BioAssay AID1259407 (Chemical Carcinogenesis Research Information System (CCRIS), 2018).
Activity calls are given as the source filed them. No rule for the calls is given here.

Tested on: CCRIS mutagenicity, Ames/micronucleus/aberration tests
Assay: CCRIS mutagenicity studies
[1] = Test System: AMES SALMONELLA TYPHIMURIUM, Strain/Indicator: TA100, Metabolic Activation: NONE, Method: STANDARD PLATE

SMILES: O=C1c2cccc(O)c2C(=O)c2c(O)cccc21
- mutagenic call (Test System: AMES SALMONELLA TYPHIMURIUM, Strain/Indicator: TA98, Metabolic Activation: NONE, Method: STANDARD PLATE): inactive; negative
- mutagenic call (Test System: AMES SALMONELLA TYPHIMURIUM, Strain/Indicator: TA98, Metabolic Activation: RAT, LIVER, S-9, AROCLOR 1254, Method: STANDARD PLATE): inactive; negative
- mutagenic call [1]: inactive; negative
- mutagenic call (Test System: AMES SALMONELLA TYPHIMURIUM, Strain/Indicator: TA100, Metabolic Activation: RAT, LIVER, S-9, AROCLOR 1254, Method: STANDARD PLATE): inactive; negative
- mutagenic call (Test System: AMES SALMONELLA TYPHIMURIUM, Strain/Indicator: TA102, Metabolic Activation: NONE, Method: PREINCUBATION): active; positive
- mutagenic call (Test System: AMES SALMONELLA TYPHIMURIUM, Strain/Indicator: TA102, Metabolic Activation: NONE, Method: STANDARD PLATE): inactive; negative
- mutagenic call (Test System: AMES SALMONELLA TYPHIMURIUM, Strain/Indicator: TA102, Metabolic Activation: RAT LIVER S-9, AROCLOR 1254, Method: STANDARD PLATE): active; positive
- mutagenic call (Test System: AMES SALMONELLA TYPHIMURIUM, Strain/Indicator: TA102, Metabolic Activation: RAT, LIVER, S-9, AROCLOR 1254, Method: STANDARD PLATE): active; positive
- mutagenic call (Test System: AMES SALMONELLA TYPHIMURIUM, Strain/Indicator: TA102, Metabolic Activation: RAT, LIVER, S-9, PHENOBARBITONE AND BETA-NAPHTHOFLAVONE, Method: STANDARD PLATE): active; positive
- mutagenic call (Test System: AMES SALMONELLA TYPHIMURIUM, Strain/Indicator: TA102, Metabolic Activation: RAT, LIVER, S-9, Method: PREINCUBATION): active; positive
- mutagenic call (Test System: AMES SALMONELLA TYPHIMURIUM, Strain/Indicator: TA102, Metabolic Activation: S-9, Method: STANDARD PLATE): active; positive
- mutagenic call (Test System: AMES SALMONELLA TYPHIMURIUM, Strain/Indicator: TA1535, Metabolic Activation: NONE, Method: STANDARD PLATE): inactive; negative
- mutagenic call (Test System: AMES SALMONELLA TYPHIMURIUM, Strain/Indicator: TA1535, Metabolic Activation: RAT, LIVER, S-9, AROCLOR 1254, Method: STANDARD PLATE): inactive; negative
- mutagenic call (Test System: AMES SALMONELLA TYPHIMURIUM, Strain/Indicator: TA1537, Metabolic Activation: NONE, Method: PREINCUBATION): active; positive
- mutagenic call (Test System: AMES SALMONELLA TYPHIMURIUM, Strain/Indicator: TA1537, Metabolic Activation: NONE, Method: STANDARD PLATE): active; positive
- mutagenic call (Test System: AMES SALMONELLA TYPHIMURIUM, Strain/Indicator: TA1537, Metabolic Activation: RAT, LIVER, S-9, AROCLOR 1254, Method: STANDARD PLATE): active; positive
- mutagenic call (Test System: AMES SALMONELLA TYPHIMURIUM, Strain/Indicator: TA1537, Metabolic Activation: RAT, LIVER, S-9, Method: PREINCUBATION): active; positive
- mutagenic call (Test System: AMES SALMONELLA TYPHIMURIUM, Strain/Indicator: TA1538, Metabolic Activation: NONE, Method: STANDARD PLATE): inactive; negative
- mutagenic call (Test System: AMES SALMONELLA TYPHIMURIUM, Strain/Indicator: TA1538, Metabolic Activation: RAT, LIVER, S-9, AROCLOR 1254, Method: STANDARD PLATE): inactive; negative
- mutagenic call (Test System: AMES SALMONELLA TYPHIMURIUM, Strain/Indicator: TA2638, Metabolic Activation: S-9, Method: STANDARD PLATE): active; positive
- mutagenic call (Test System: E. COLI, Strain/Indicator: WP2 (PKM101), Metabolic Activation: RAT, LIVER, S-9, PHENOBARBITONE AND BETA-NAPHTHOFLAVONE, Method: STANDARD PLATE): inactive; negative
- mutagenic call (Test System: E. COLI, Strain/Indicator: WP2 (PKM101), Metabolic Activation: S-9, Method: STANDARD PLATE): inactive; negative
- mutagenic call (Test System: E. COLI, Strain/Indicator: WP2 UVRA (PKM101), Metabolic Activation: RAT, LIVER, S-9, PHENOBARBITONE AND BETA-NAPHTHOFLAVONE, Method: STANDARD PLATE): inactive; negative
- mutagenic call (Test System: E. COLI, Strain/Indicator: WP2 UVRA (PKM101), Metabolic Activation: S-9, Method: STANDARD PLATE): inactive; negative

SMILES: O=C/C=C/c1ccccc1[N+](=O)[O-]
- mutagenic call (Test System: AMES SALMONELLA TYPHIMURIUM, Strain/Indicator: TA100, Metabolic Activation: NONE, Method: PREINCUBATION): active; positive
- mutagenic call (Test System: AMES SALMONELLA TYPHIMURIUM, Strain/Indicator: TA100, Metabolic Activation: RAT, LIVER, S-9, AROCLOR 1254, Method: PREINCUBATION): active; positive

SMILES: O=C1CC(=C(Cl)Cl)C(=O)N1
- mutagenic call [1]: active; positive

SMILES: CC1(C)O[C@H]1COc1c2ccoc2cc2oc(=O)ccc12
- mutagenic call (Test System: AMES SALMONELLA TYPHIMURIUM, Strain/Indicator: TA92, Metabolic Activation: NONE, Method: SPOT TEST): inactive; negative
- mutagenic call (Test System: AMES SALMONELLA TYPHIMURIUM, Strain/Indicator: TA92, Metabolic Activation: RAT, LIVER, S-9, AROCLOR 1254, Method: SPOT TEST): inactive; negative
- mutagenic call (Test System: AMES SALMONELLA TYPHIMURIUM, Strain/Indicator: TA94, Metabolic Activation: NONE, Method: SPOT TEST): inactive; negative
- mutagenic call (Test System: AMES SALMONELLA TYPHIMURIUM, Strain/Indicator: TA94, Metabolic Activation: RAT, LIVER, S-9, AROCLOR 1254, Method: SPOT TEST): inactive; negative
- mutagenic call (Test System: AMES SALMONELLA TYPHIMURIUM, Strain/Indicator: TA97, Metabolic Activation: NONE, Method: SPOT TEST): inactive; negative
- mutagenic call (Test System: AMES SALMONELLA TYPHIMURIUM, Strain/Indicator: TA97, Metabolic Activation: RAT, LIVER, S-9, AROCLOR 1254, Method: SPOT TEST): inactive; negative
- mutagenic call (Test System: AMES SALMONELLA TYPHIMURIUM, Strain/Indicator: TA98, Metabolic Activation: NONE, Method: SPOT TEST): inactive; negative
- mutagenic call (Test System: AMES SALMONELLA TYPHIMURIUM, Strain/Indicator: TA98, Metabolic Activation: RAT, LIVER, S-9, AROCLOR 1254, Method: SPOT TEST): inactive; negative
- mutagenic call (Test System: AMES SALMONELLA TYPHIMURIUM, Strain/Indicator: TA100, Metabolic Activation: NONE, Method: SPOT TEST): inactive; negative
- mutagenic call (Test System: AMES SALMONELLA TYPHIMURIUM, Strain/Indicator: TA100, Metabolic Activation: RAT, LIVER, S-9, AROCLOR 1254, Method: SPOT TEST): inactive; negative
- mutagenic call (Test System: AMES SALMONELLA TYPHIMURIUM, Strain/Indicator: TA102, Metabolic Activation: NONE, Method: SPOT TEST): inactive; negative
- mutagenic call (Test System: AMES SALMONELLA TYPHIMURIUM, Strain/Indicator: TA102, Metabolic Activation: RAT, LIVER, S-9, AROCLOR 1254, Method: SPOT TEST): inactive; negative

SMILES: CC(Br)C(=O)NCc1ccccc1 (stereo not drawn)
- mutagenic call (Test System: AMES SALMONELLA TYPHIMURIUM, Strain/Indicator: TA100, Metabolic Activation: MOUSE, LIVER, S-9, AROCLOR 1254, Method: STANDARD PLATE): active; positive
- mutagenic call [1]: active; positive

SMILES: CCCCON(OC(C)=O)C(=O)c1ccc(C(C)(C)C)cc1
- mutagenic call [1]: active; positive
- mutagenic call (Test System: AMES SALMONELLA TYPHIMURIUM, Strain/Indicator: TA100, Metabolic Activation: RAT, S-9, AROCLOR, Method: STANDARD PLATE): active; positive
